{"source": "patent US20230210819A1", "about": "“USE OF BENZISOSELAZOLE DERIVATIVE FOR ANTI-CORONAVIRUS AND CONTROL OF INTERSTITIAL LUNG DISEASE (ILD) RELATED TO CORONAVIRUS” (SHANGHAI YUANXI MEDICINE CORP., priority 2020, published 2023)", "assay": "Toxic or side effects on mice on gavage administration", "assay_type": "in vivo", "details": "BS 36, 90 and 180 mg/kg", "procedure": "Accordingly, the above dosages were selected as the dosages for administration in this experiment,\nAll the animals were observed once daily during the experiment for death or dying, feces, ingestion, mental state and behavior and activity. Abnormalities were recorded in time. All the animals were weighed once before grouping and once before each dose.", "note": "Entries after “also recorded” stand apart in the source; their conditions may differ.", "data": [{"compound": "O=c1c2ccccc2[se]n1CCCCn1[se]c2ccccc2c1=O", "note": "[BS, 1,4-[bis(1,2-benzisoselenazol-3(2H)-one)]butane]", "values": [{"measurement": "Toxic or side effects (in words)", "value": "no toxic and side effects; also recorded: no significant toxic or side effects"}]}]}
